Measured values: the NIST ThermoML archive (doi:10.1021/je200806n)

Assays:
[1] = 101.3 kPa, Liquid
[2] = xn = mol fraction of the nth substance listed; details: 101.3 kPa, Liquid

CCCC(C)O (stereo unspecified) [pentan-2-ol]
[1]
Details	mass density [kg/m3]	viscosity [mPa·s]
298.15 K	805.41	3.499
303.15 K	801.21	2.801
308.15 K	796.64	2.334
313.15 K	792.51	1.993

CCCCC(C)O (stereo unspecified) [2-hexanol]
[1]
Details	mass density [kg/m3]	viscosity [mPa·s]
298.15 K	810.14	4.101
303.15 K	806.13	3.411
308.15 K	802.06	2.819
313.15 K	797.96	2.219

O=C1CCCCC1 [cyclohexanone]
[1]
Details	mass density [kg/m3]	viscosity [mPa·s]
298.15 K	941.91	2.057
303.15 K	937.24	1.847
308.15 K	932.67	1.694
313.15 K	927.72	1.546

CCC(C)O (stereo unspecified) [butan-2-ol]
[1]
Details	mass density [kg/m3]	viscosity [mPa·s]
298.15 K	803.01	3.104
303.15 K	798.29	2.597
308.15 K	793.57	2.152
313.15 K	789.15	1.733

CCCCCC(C)O (stereo unspecified) [2-heptanol]
[1]
Details	mass density [kg/m3]	viscosity [mPa·s]
298.15 K	813.18	5.023
303.15 K	809.26	4.151
308.15 K	805.01	3.478
313.15 K	801.14	2.852

CC(C)O [propan-2-ol]
[1]
Details	mass density [kg/m3]	viscosity [mPa·s]
298.15 K	781.09	2.055
303.15 K	776.57	1.788
308.15 K	771.87	1.563
313.15 K	767.36	1.378

CCCCCC(C)O (stereo unspecified) [2-heptanol] + O=C1CCCCC1
[2]
Details	mass density, 298.15 K [kg/m3]	mass density, 303.15 K [kg/m3]	mass density, 308.15 K [kg/m3]	mass density, 313.15 K [kg/m3]	viscosity, 298.15 K [mPa·s]	viscosity, 303.15 K [mPa·s]	viscosity, 308.15 K [mPa·s]	viscosity, 313.15 K [mPa·s]
x2 = 0	813.18	809.26	805.01	801.14	5.023	4.151	3.478	2.852
x2 = 0.0826	820.37	816.21	811.69	807.61	4.282	3.546	2.94	2.412
x2 = 0.1625	827.64	823.36	818.81	814.53	3.64	2.986	2.448	1.989
x2 = 0.2415	835.26	830.91	826.28	821.87	3.081	2.473	1.999	1.604
x2 = 0.3506	846.69	842.19	837.46	832.94	2.401	1.874	1.482	1.151
x2 = 0.44	856.83	852.22	847.44	842.79	1.954	1.468	1.141	0.862
x2 = 0.5603	871.72	866.99	862.12	857.35	1.513	1.107	0.849	0.627
x2 = 0.6494	883.79	878.98	874.11	869.26	1.308	0.971	0.773	0.576
x2 = 0.7394	896.96	892.15	887.29	882.32	1.243	0.976	0.816	0.647
x2 = 0.85	914.67	909.91	905.04	900.06	1.391	1.193	1.054	0.91
x2 = 0.9392	930.26	925.58	920.79	915.85	1.727	1.535	1.411	1.256
